“Also recorded” adds a separate entry of the source.
Tests used:
FIPV = conditions: known drugs; cited from earlier work
[1] = target: T1, 3CL protease of the FIP virus (Feline coronavirus, UniProt Q98VG9); conditions: cited from earlier work
T1 construct: 3CL protease of the FIP virus

[2] = system: diarrheagenic E. coli and APEC; assay: Growth of diarrheagenic and APEC E. coli in LB media; format: cell-based; conditions: 30 mM
Method: (§1) The control sample contained 40 mM NaCl.
Diarrheagenic E. coli pathogroups differ by their preferential host colonization sites, virulence mechanisms, and clinical symptoms.

Salmonella [3] = assay: Growth of five Salmonella strains; format: cell-based
Method: as §1

[4] = system: AIEC E. coli isolated from people (MDR and non-MDR strains); assay: Growth of MDR and non-MDR E. coli associated with Crohn's disease; format: cell-based; conditions: 40 mM, LB broth, 48 hrs
Method: (§2) The ability of C1-C3 alkyl boronic acids and BA to impact the growth of MDR E. coli isolated from people and dogs was evaluated using a temperature controlled 96-well multiplate incubator at 37° C. over 48 hrs. Growth in media (LB broth) with and without ABA C2-6 (40 mM) was monitored by readings at OD600 with the AUC of the growth curve calculated.

[5] = system: AIEC E. coli from dogs (MDR and non-MDR strains); assay: Growth of MDR and non-MDR E. coli associated with Granulomatous colitis in dogs; format: cell-based; conditions: 40 mM, LB broth, 48 hrs
Method: as §2
Non-MDR strains KD1, KD2, and KD3 were also evaluated.

[6] = system: AIEC and cancer associated E. coli; assay: Soft agar motility assay, E. coli; format: cell-based; conditions: 10 h, AIEC NC101, 541-1, cancer associated E. coli
Method: (§3) The ability of ABA C1-3 and BA to impact the motility of E. coli and Salmonella was evaluated using sloppy agar treated with and without BA and C1-C3 alkyl boronic acids. Motility is strongly linked to the virulence phenotype of these bacterial strains. E. coli was grown overnight at 37° C. in LB broth. Soft agar plates (1% tryptone, 0.5% NaCl, 0.25% agar) were prepared the day before the assay was carried out. Sterile NaCl (control), boric or boronic acid stock solution was added into the agar right before pouring the plates. The overnight cultures of E. coli were transferred (3 μl) on to the center of each plate, followed by incubation of the plates at 37° C. for 10 h. E. coli motility was quantified by measuring the diameter of the circular swarming area formed by the growing motile bacteria.

Salmonella [7] = assay: Soft agar motility assay, Salmonella; format: cell-based; conditions: % motility of the control
Method: as §3

nF-κB = assay: E. coli induced nF-κB activation in HEK-Blue KD-TLR5 cells (SEAP reporter); format: cell-based; conditions: m.o.i 20, SEAP at 24 h
Method: HEK-Blue KD-TLR5 cells were used to detect the promotor activation of nF-κB by E. coli infection with or without boric or boronic acid treatment. nF-κB is the prototypical transcription factor for pro-inflammatory cytokines in epithelium. Briefly, cells were seeded in 96-well plates at a density of 5×10^4 cells per well. E. coli was diluted into fresh cell medium containing either NaCl (Control), boric or boronic acid at an m.o.i of 200 as 10× inocula, followed by addition of this inoculum (10 μl) into each well containing 100 μl of medium for a final m.o.i of 20. At 3 h post infection, the cell medium was carefully removed from each well, and replaced with 100 μl of fresh medium containing gentamycin (200 μg mL^−1). At 24 h post infection, the spent medium was collected, and centrifuged at 12,000 r.p.m. for 5 min to remove any particulate matter. QUANTI-Blue Kit (InvivoGen, San Diego, CA, USA) was used to detect the reporter protein SEAP (secreted alkaline phosphatase) following the manufacturer's instructions.

AIEC 541-1 and LF82 = assay: Adhesion and invasion of Caco-2 cells by AIEC; format: cell-based, E. coli; conditions: 30 mM, m.o.i 10, 3 h
Method: E. coli was cultured overnight in LB at 37° C. with shaking. Bacterial pellets were re-suspended in PBS before dilution in cell culture media±30 mM boronic acid or alkyl boronic acid to an m.o.i (multiplicity of infection) of 10. Caco-2 cells were infected with the diluted E. coli for 3 h at 37° C. before washing with PBS, then lysed with 1% Triton X-100. Serial dilutions of the lysates were made in PBS and plated on LB agar. The total number of colonies recovered was used to calculate the number of adherent bacteria. For invasion assays, cells were treated with gentamicin (100 μg mL−1) for one hour after initial infection and 3× wash with PBS to kill extracellular bacteria. Cells were then washed 3× after gentamicin treatment, lysed and plated as described above.

[8] = system: AIEC in murine macrophage J774A.1 cells; assay: Uptake and survival of AIEC in J774A.1 macrophages; format: cell-based, E. coli
[9] = system: typhoid toxin B subunit (CdtB); format: cell-based, Salmonella typhi
[10] = system: Feline Infectious Peritonitis Virus (FIPV) Black (TN-406); assay: FIPV replication and syncytium formation, immunofluorescence; format: cell-based, Feline Coronavirus type I; conditions: 10, 20, 30, 40 mM; Feline Lung cells, 18 h post-infection
[11] = system: probiotic Lactobacillus spp; assay: Growth of probiotic Lactobacillus strains; conditions: three Lactobacillus strains

T1 sequence (Q98VG9 2904-3205): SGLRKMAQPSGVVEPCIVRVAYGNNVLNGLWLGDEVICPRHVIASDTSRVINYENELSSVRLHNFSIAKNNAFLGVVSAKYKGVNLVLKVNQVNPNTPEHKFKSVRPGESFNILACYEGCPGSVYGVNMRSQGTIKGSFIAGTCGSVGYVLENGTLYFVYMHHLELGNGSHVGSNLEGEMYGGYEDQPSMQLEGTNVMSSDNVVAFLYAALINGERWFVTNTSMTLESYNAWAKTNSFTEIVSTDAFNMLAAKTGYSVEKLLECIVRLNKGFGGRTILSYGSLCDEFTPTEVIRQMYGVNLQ

Compound	efficacy against FIPV (FIPV)	inhibition of FIP virus 3CL protease [1]	inhibition of growth of diarrheagenic and APEC E. coli [2]	inhibition of growth of Salmonella serovars (Salmonella [3])	growth inhibition of Crohn's disease associated AIEC, MDR and non-MDR [4]	growth inhibition of canine Granulomatous colitis associated AIEC, MDR and non-MDR [5]	motility of E. coli [6]	motility of Salmonella (Salmonella [7])	induction of nF-κB by E. coli (nF-κB)	adhesion and invasion of Caco-2 by AIEC (AIEC 541-1 and LF82)	survival of AIEC in J774A.1 macrophages ([8]; 30 mM during infection, 24 h post infection)	uptake of AIEC by J774A.1 macrophages ([8]; 30 mM, 1 h)	typhoid toxin (CdtB) production [9]	replication and syncytium formation of FIPV [10]	degree of cytopathic effect (Caco-2 cells)	cytotoxicity in antiviral assay (Feline Lung cells)	growth of probiotic Lactobacillus spp [11]
CC(C)C[C@H](NC(=O)OCc1ccccc1)C(=O)N[C@@H](C[C@@H]1CCNC1=O)C(O)S(=O)(=O)[O-].[Na+] (some centres unmarked) [GC376]	some efficacy against FIPV	inhibited															
CCCB(O)O [PBA]			have activity versus the diarrheagenic E. coli and APEC that varies by pathogroup; also recorded: more effective in inhibiting bacterial growth than BA overall	inhibit the growth of multiple serovars of Salmonella more effectively than BA	more effective than BA over a wider range of AIEC, including MDR and non-MDR strains	more effective than BA over a wider range of AIEC, including MDR and non-MDR strains	highly effective at blocking motility of AIEC and cancer associated E. coli	highly effective at blocking motility of Salmonella	reduced the induction of nF-κB by E. coli	suppress adhesion and invasion of Caco-2 by AIEC 541-1 and LF82	inhibited the survival	inhibited the uptake	inhibition of toxin production (CdtB)	inhibited replication and syncytium formation of FIPV in infected cells	EBA<BA<PBA	Cytotoxicity was not observed at antiviral doses	do not suppress growth
